Experimental data as given in patent US8697868B2, “8-[3-amino-piperidin-1-yl]-xanthines, their preparation and their use as pharmaceutical compositions” (Boehringer Ingelheim International GmbH, priority 2004, dated 2014).

Molecular target: DPP-IV (Homo sapiens (Human), UniProt P27487)
Sequence (P27487 whole entry): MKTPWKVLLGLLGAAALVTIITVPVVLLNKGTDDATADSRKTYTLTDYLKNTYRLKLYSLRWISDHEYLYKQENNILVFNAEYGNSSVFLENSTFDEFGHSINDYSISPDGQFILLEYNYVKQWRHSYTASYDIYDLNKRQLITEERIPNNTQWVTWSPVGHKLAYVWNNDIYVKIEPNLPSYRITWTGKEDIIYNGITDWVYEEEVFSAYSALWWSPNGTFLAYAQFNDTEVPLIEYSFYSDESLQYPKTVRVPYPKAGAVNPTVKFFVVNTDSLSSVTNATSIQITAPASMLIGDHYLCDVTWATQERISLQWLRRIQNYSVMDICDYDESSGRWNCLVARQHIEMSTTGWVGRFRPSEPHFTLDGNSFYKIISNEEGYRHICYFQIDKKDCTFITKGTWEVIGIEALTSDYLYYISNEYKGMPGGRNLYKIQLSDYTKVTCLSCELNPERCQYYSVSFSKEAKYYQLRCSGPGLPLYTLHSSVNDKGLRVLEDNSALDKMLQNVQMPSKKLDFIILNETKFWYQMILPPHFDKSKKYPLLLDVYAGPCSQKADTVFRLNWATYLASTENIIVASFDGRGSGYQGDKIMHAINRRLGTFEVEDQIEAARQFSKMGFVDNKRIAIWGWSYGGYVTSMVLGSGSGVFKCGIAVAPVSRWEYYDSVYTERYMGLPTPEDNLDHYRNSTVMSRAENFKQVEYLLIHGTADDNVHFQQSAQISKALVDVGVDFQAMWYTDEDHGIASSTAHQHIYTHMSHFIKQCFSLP
Experiment: DPP-IV assay with Caco-2 cell extract as DPP IV source
Assay type: biochemical
Settings: extract of human colon carcinoma cell line Caco-2 as DPP IV source; AFC substrate 100 μM; 60 minutes at ambient temperature; read-out: DPP IV inhibition IC50
Experimental: The differentiation of the cells in order to induce the DPP-IV expression was carried out in accordance with the description by Reiher et al. in an article entitled “Increased expression of intestinal cell line Caco-2” that appeared in Proc. Natl. Acad. Sci. Vol. 90, pp. 5757-5761 (1993). The cell extract was obtained from cells solubilized in a buffer (10 mM Tris HCl, 0.15 M NaCl, 0.04 t.i.u. aprotinin, 0.5% Nonidet-P40, pH 8.0) by centrifugation at 35,000 g for 30 minutes at 4° C. (to remove cell debris).
The DPP-IV assay was carried out as follows:
50 μl of substrate solution (AFC; AFC is amido-4-trifluoromethylcoumarin), final concentration 100 μM, was placed in black microtitre plates. 20 μl of assay buffer (final concentrations 50 mM Tris HCl pH 7.8, 50 mM NaCl, 1% DMSO) was pipetted therein. The reaction was started by the addition of 30 μl of solubilized Caco-2 protein (final concentration 0.14 μg of protein per well). The test substances under investigation were typically added prediluted to 20 μl, while the volume of assay buffer was then reduced accordingly. The reaction was carried out at ambient temperature, the incubation period was 60 minutes. Then the fluorescence was measured in a Victor 1420 Multilabel Counter, with the excitation wavelength at 405 nm and the emission wavelength at 535 nm. Dummy values (corresponding to 0% activity) were obtained in mixtures with no Caco-2 protein (volume replaced by assay buffer), control values (corresponding to 100% activity) were obtained in mixtures without any added substance. The potency of the test substances in question, expressed as IC50 values, were calculated from dosage/activity curves consisting of 11 measured points in each case.
For `CC#CCn1c(N2CCC[C@@H](N)C2)nc2c1c(=O)n(Cc1cc(C#N)cc3ccccc13)c(=O)n2C` [1(3), 1-[(3-cyano-naphthalen-1-yl)methyl]-3-methyl-7-(2-butyn-1-yl)-8-((R)-3-amino-piperidin-1-yl)-xanthine], the IC50 was 6 nM.
In the case of `CC#CCn1c(N2CCC[C@@H](N)C2)nc2c1c(=O)n(Cc1nc(-c3ccccc3)nc3ccccc13)c(=O)n2C` [1(4), 1-[(2-phenyl-quinazolin-4-yl)methyl]-3-methyl-7-(2-butyn-1-yl)-8-((R)-3-amino-piperidin-1-yl)-xanthine], the IC50 is reported as 9 nM.
`CC#CCn1c(N2CCC[C@@H](N)C2)nc2c1c(=O)n(Cc1cc(C#N)c3ccccc3n1)c(=O)n2C` [1(6), 1-[(4-cyano-quinolin-2-yl)methyl]-3-methyl-7-(2-butyn-1-yl)-8-((R)-3-amino-piperidin-1-yl)-xanthine] gave an IC50 of 2 nM.
With `CC#CCn1c(N2CCC[C@@H](N)C2)nc2c1c(=O)n(CC(=O)c1cccc(OC3CC3)c1)c(=O)n2C` [1(7), 1-[2-(3-cyclopropyloxy-phenyl)-2-oxo-ethyl]-3-methyl-7-(2-butyn-1-yl)-8-((R)-3-amino-piperidin-1-yl)-xanthine] the IC50 was 5 nM.
`CC#CCn1c(N2CCC[C@@H](N)C2)nc2c1c(=O)n(Cc1ccc3nc(C)c(C)nc3c1)c(=O)n2C` [1(12), 1-[(2,3-dimethyl-quinoxalin-6-yl)methyl]-3-methyl-7-(2-butyn-1-yl)-8-((R)-3-amino-piperidin-1-yl)-xanthine] gave an IC50 of 2 nM.
`CC#CCn1c(N2CCC[C@@H](N)C2)nc2c1c(=O)n(CC(=O)c1ccccc1-c1cccnc1)c(=O)n2C` [1(21), 1-{2-oxo-2-[2-(pyridin-3-yl)-phenyl]-ethyl}-3-methyl-7-(2-butyn-1-yl)-8-((R)-3-amino-piperidin-1-yl)-xanthine] showed an IC50 of 2 nM.
In the case of `CC#CCn1c(N2CCC[C@@H](N)C2)nc2c1c(=O)n(Cc1cnc3cccnc3c1)c(=O)n2C` [1(26), 1-[([1,5]naphthyridin-3-yl)methyl]-3-methyl-7-(2-butyn-1-yl)-8-((R)-3-amino-piperidin-1-yl)-xanthine], the IC50 is reported as 2 nM.
In the case of `CC#CCn1c(N2CCC[C@@H](N)C2)nc2c1c(=O)n(Cc1nccc(-c3ccccc3)n1)c(=O)n2C` [1(31), 1-[(4-phenyl-pyrimidin-2-yl)methyl]-3-methyl-7-(2-butyn-1-yl)-8-((R)-3-amino-piperidin-1-yl)-xanthine], the IC50 is reported as 3 nM.
Work on `CC#CCn1c(N2CCC[C@@H](N)C2)nc2c1c(=O)n(Cc1ccc3cncnc3c1)c(=O)n2C` [1(38), 1-[(quinazolin-7-yl)methyl]-3-methyl-7-(2-butyn-1-yl)-8-((R)-3-amino-piperidin-1-yl)-xanthine] yielded an IC50 of 1 nM.
In the case of `CC#CCn1c(N2CCC[C@@H](N)C2)nc2c1c(=O)n(Cc1ccccc1C#N)c(=O)n2C` [1(39), 1-(2-cyano-benzyl)-3-methyl-7-(2-butyn-1-yl)-8-((R)-3-amino-piperidin-1-yl)-xanthine], the IC50 is reported as 2 nM.
With `CC#CCn1c(N2CCC[C@@H](N)C2)nc2c1c(=O)n(Cc1nc3ccccc3cc1C#N)c(=O)n2C` [Example 1(30), 1-[(3-cyano-quinolin-2-yl)methyl]-3-methyl-7-(2-butyn-1-yl)-8-((R)-3-amino-piperidin-1-yl)-xanthine] the IC50 was 2 nM.
`CC#CCn1c(N2CCCC(N)C2)nc2c1c(=O)n(Cc1nc(Nc3ccccc3)c3ccccc3n1)c(=O)n2C` (stereo not shown) [Example 1, 1-[(4-phenylamino-quinazolin-2-yl)methyl]-3-methyl-7-(2-butyn-1-yl)-8-(3-amino-piperidin-1-yl)-xanthine] gave an IC50 of 6 nM.

System: not given
Experiment: not given
Settings: not given
With `CC#CCn1c(N2CCC[C@@H](N)C2)nc2c1c(=O)n(Cc1ccccc1)c(=O)n2C` [Example 1(43), 1-benzyl-3-methyl-7-(2-butyn-1-yl)-8-((R)-3-amino-piperidin-1-yl)-xanthine] the melting point was 207 to 209 °C.
Work on `CC#CCn1c(N2CCC[C@@H](N)C2)nc2c1c(=O)n(Cc1nc(C)cc(C)n1)c(=O)n2C` [Example 1(82), 1-[(4,6-dimethyl-pyrimidin-2-yl)methyl]-3-methyl-7-(2-butyn-1-yl)-8-((R)-3-amino-piperidin-1-yl)-xanthine] yielded a melting point of 202 to 204 °C.
For `CC#CCn1c(N2CCC[C@@H](N)C2)nc2c1c(=O)n(Cc1cnccc1C#N)c(=O)n2C` [Example 1(102), 1-[(4-cyano-pyridin-3-yl)methyl]-3-methyl-7-(2-butyn-1-yl)-8-((R)-3-amino-piperidin-1-yl)-xanthine], the melting point was 166 °C.

System: rats
Experiment: Tolerability after oral administration in rats
Assay type: in vivo
Settings: oral administration of 10 mg/kg
With `CC#CCn1c(N2CCC[C@@H](N)C2)nc2c1c(=O)n(Cc1nc3ccccc3cc1C#N)c(=O)n2C` [Example 1(30), 1-[(3-cyano-quinolin-2-yl)methyl]-3-methyl-7-(2-butyn-1-yl)-8-((R)-3-amino-piperidin-1-yl)-xanthine] the toxic side effects was “no toxic side effects could be detected”.
